These results are taken from patent US20250145665A1, “MACROCYCLIC PEPTIDES USEFUL AS MODULATORS OF TNF ALPHA” (Bristol-Myers Squibb Company, priority 2023, published 2025).

Starred links: 1 amine or outer side, 2 acyl side, 3 side chain; linkers in the order of their positions; H or OH if unused. Positions of bridges follow the written chain, without caps; N, C: chain ends. Non-standard residues stand in square brackets, D forms with d. Residues, ends and D or L forms follow the SMILES beside them. ξ: configuration not given here. *: point of attachment. Bip(4'-NHCO-C6H4-3-CH2COOH) = N[C@@H](Cc1ccc(-c2ccc(NC(=O)c3cccc(CC(=O)O)c3)cc2)cc1)C(=O)O; Bip(4'-NH) = O=C([C@H](Cc1ccc(-c2ccc(N[*:3])cc2)cc1)N[*:1])[*:2]; dArg(ω-(3-HO-benzyl)) = N=C(NCCC[C@@H](N)C(=O)O)NCc1cccc(O)c1; Indazole3carbonyl(1-CH2COOH) = O=C(O)Cn1nc(C(=O)*)c2ccccc21; Bip(4'-COOH) = N[C@@H](Cc1ccc(-c2ccc(C(=O)O)cc2)cc1)C(=O)O; Bip(4'-NHAc) = CC(=O)Nc1ccc(-c2ccc(C[C@H](N)C(=O)O)cc2)cc1; Indole3carbonyl(1-CH2COOH) = O=C(O)Cn1cc(C(=O)*)c2ccccc21; Pro(trans-4-Ph) = O=C(O)[C@@H]1C[C@@H](c2ccccc2)CN1; Ala(imidazol-2-yl) = N[C@@H](Cc1ncc[nH]1)C(=O)O; dArg(ω-Bn) = N=C(NCCC[C@@H](N)C(=O)O)NCc1ccccc1; Ala(morpholin-4-yl) = N[C@@H](CN1CCOCC1)C(=O)O; Bip = N[C@@H](Cc1ccc(-c2ccccc2)cc1)C(=O)O; Tiq1c(1S) = O=C(O)[C@H]1NCCc2ccccc21; Val(3-OH) = CC(C)(O)[C@H](N)C(=O)O; Hyp = O=C(O)[C@@H]1C[C@@H](O)CN1; hPhe = N[C@@H](CCc1ccccc1)C(=O)O; 2Pal = N[C@@H](Cc1ccccn1)C(=O)O; Tic = O=C(O)[C@@H]1Cc2ccccc2CN1; 2Thi = N[C@@H](Cc1cccs1)C(=O)O; Cha = N[C@@H](CC1CCCCC1)C(=O)O; ξIle = CC[C@H](C)C(N)C(=O)O; Sar = CNCC(=O)O Some results are limits rather than exact numbers.

Chain of TNFα (P01375 77-233 limits assumed): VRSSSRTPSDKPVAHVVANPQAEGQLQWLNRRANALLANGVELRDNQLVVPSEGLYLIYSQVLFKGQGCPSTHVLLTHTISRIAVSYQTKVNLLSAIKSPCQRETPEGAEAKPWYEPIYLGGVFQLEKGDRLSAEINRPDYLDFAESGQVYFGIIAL

The first experiment concerns the target TNFα (Homo sapiens, UniProt P01375). The experiment can be described thus: TNF-Induced HEK-Blue Assay. In kind it is cell-based.
Conditions: not given
Compound `CC[C@H](C)[C@@H]1NC(=O)[C@@H](CCCNC(=N)NCc2ccccc2)NC(=O)[C@H](CC(=O)O)NC(=O)[C@@H]2CCCN2C(=O)CN(C)C(=O)[C@H](Cc2ccc(-c3ccc(NC(=O)c4cn(CC(=O)O)c5ccccc45)cc3)cc2)NC(=O)[C@H](Cc2ccc(-c3ccccc3)cc2)NC(=O)[C@H](CN2CCOCC2)NC(=O)CSC[C@@H](C(=O)NCC(N)=O)NC(=O)[C@H](CC(C)C)NC(=O)[C@H](Cc2cnc[nH]2)NC(=O)[C@H](C(C)C)NC(=O)[C@@H]2CCCN2C1=O` [Example 533] ({CH2CO}-[Ala(morpholin-4-yl)][Bip][Bip(4'-NH)](Indole3carbonyl(1-CH2COOH))[Sar]PD[dArg(ω-Bn)]IPVHLCG-NH2; thioether N-13) showed a 50% inhibitory concentration (IC50) below 50 nM.

The compound `CC[C@H](C)[C@@H]1NC(=O)[C@@H](CCCNC(=N)N)NC(=O)[C@H](CC(=O)O)NC(=O)[C@H](Cc2cnc[nH]2)NC(=O)CN(C)C(=O)[C@H](Cc2ccc(-c3ccc(NC(=O)c4nn(CC(=O)O)c5ccccc45)cc3)cc2)NC(=O)[C@H](Cc2ccc(-c3ccc(C(=O)O)cc3)cc2)NC(=O)[C@H](CC2CCCCC2)NC(=O)CSC[C@@H](C(=O)NCC(N)=O)NC(=O)[C@H](CC(C)C)NC(=O)[C@H](Cc2cnc[nH]2)NC(=O)[C@H](C(C)C)NC(=O)[C@@H]2c3ccccc3CCN2C1=O` [Example 360] ({CH2CO}-[Cha][Bip(4'-COOH)][Bip(4'-NH)](Indazole3carbonyl(1-CH2COOH))[Sar]HD[dR]I[Tiq1c(1S)]VHLCG-NH2; thioether N-13) came in with an IC50 below 50 nM.

The same experiment, now with this note: HEK-Blue-CD40L cells, NF-kB-driven secreted alkaline phosphatase reporter; TNFα 0.5 ng/ml; 18 h; read-out: TNF induced HEK-Blue assay IC50 value.
Turning to `CC[C@H](C)[C@@H]1NC(=O)[C@@H](CCCNC(=N)NCc2cccc(O)c2)NC(=O)[C@H](CC(=O)O)NC(=O)[C@H](Cc2cnc[nH]2)NC(=O)CN(C)C(=O)[C@H](Cc2ccc(-c3ccc(NC(=O)c4cccc(CC(=O)O)c4)cc3)cc2)NC(=O)[C@H](Cc2ccc(-c3ccc(C(=O)O)cc3)cc2)NC(=O)[C@H](CC2CCCCC2)NC(=O)CSC[C@@H](C(=O)NCC(N)=O)NC(=O)[C@H](CC(C)C)NC(=O)[C@H](Cc2ncc[nH]2)NC(=O)[C@H](C(C)C)NC(=O)[C@@H]2Cc3ccccc3CN2C1=O` [Example 562] ({CH2CO}-[Cha][Bip(4'-COOH)][Bip(4'-NHCO-C6H4-3-CH2COOH)][Sar]HD[dArg(ω-(3-HO-benzyl))]I[Tic]V[Ala(imidazol-2-yl)]LCG-NH2; thioether N-13), the IC50 was in the range of 50 to 200 nM.

`CC(C)C[C@@H]1NC(=O)[C@H](Cc2ccc(O)cc2)NC(=O)[C@H](C(C)C)NC(=O)[C@@H]2C[C@@H](O)CN2C(=O)[C@H](C(C)C)NC(=O)[C@@H](CCCNC(=N)N)NC(=O)[C@H](CC(=O)O)NC(=O)[C@H](Cc2ccc(O)cc2)NC(=O)CN(C)C(=O)[C@H](Cc2ccc(-c3ccccc3)cc2)NC(=O)[C@H](Cc2ccc(-c3ccccc3)cc2)NC(=O)[C@H](CN2CCOCC2)NC(=O)CSC[C@@H](C(=O)NCC(N)=O)NC1=O` [Example 78] ({CH2CO}-[Ala(morpholin-4-yl)][Bip][Bip][Sar]YD[dR]V[Hyp]VYLCG-NH2; thioether N-13): the IC50 was 50 to 200 nM.

Take `CC(C)C[C@@H]1NC(=O)[C@H](CCc2ccccc2)NC(=O)[C@H](C(C)C)NC(=O)[C@@H]2CCCN2C(=O)[C@H](C(C)C)NC(=O)[C@@H](CCCNC(=N)N)NC(=O)[C@H](CC(=O)O)NC(=O)[C@H](Cc2ccc(O)cc2)NC(=O)CN(C)C(=O)[C@H](Cc2ccc(-c3ccccc3)cc2)NC(=O)[C@H](Cc2ccc(-c3ccccc3)cc2)NC(=O)[C@H](CN2CCOCC2)NC(=O)CSC[C@@H](C(=O)NCC(N)=O)NC1=O` [Example 154] ({CH2CO}-[Ala(morpholin-4-yl)][Bip][Bip][Sar]YD[dR]VPV[hPhe]LCG-NH2; thioether N-13): the half-maximal inhibitory concentration (IC50) lay within 50 to 200 nM.

`CC(C)C[C@@H]1NC(=O)[C@H](Cc2ccc(O)cc2)NC(=O)[C@H](C(C)C)NC(=O)[C@@H]2CCCN2C(=O)[C@H](Cc2ccc(O)cc2)NC(=O)[C@H](CCCNC(=N)N)NC(=O)[C@H](CC(=O)O)NC(=O)[C@@H]2CCCN2C(=O)CN(C)C(=O)[C@H](Cc2ccc(-c3ccccc3)cc2)NC(=O)[C@H](Cc2ccc(-c3ccccc3)cc2)NC(=O)[C@H](C(C)(C)O)NC(=O)CSC[C@@H](C(=O)NCC(N)=O)NC1=O` [Example 111] ({CH2CO}-[Val(3-OH)][Bip][Bip][Sar]PDRYPVYLCG-NH2; thioether N-13): the IC50 lay within 200 to 2000 nM.

Regarding `CC[C@H](C)[C@@H]1NC(=O)[C@@H](CCCNC(=N)N)NC(=O)[C@H](CC(=O)O)NC(=O)[C@H](Cc2ccccn2)NC(=O)CN(C)C(=O)[C@H](Cc2ccc(-c3ccc(NC(C)=O)cc3)cc2)NC(=O)[C@H](Cc2ccc(-c3ccccc3)cc2)NC(=O)[C@H](CN2CCOCC2)NC(=O)CSC[C@@H](C(=O)NCC(N)=O)NC(=O)[C@H](CC(C)C)NC(=O)[C@H](Cc2cccs2)NC(=O)[C@H](C(C)C)NC(=O)[C@@H]2CCCN2C1=O` [Example 604] ({CH2CO}-[Ala(morpholin-4-yl)][Bip][Bip(4'-NHAc)][Sar][2Pal]D[dR]IPV[2Thi]LCG-NH2; thioether N-13), the 50% inhibitory concentration (IC50) was below 50 nM.

As to `CC(C)C[C@@H]1NC(=O)[C@H](Cc2ccc(O)cc2)NC(=O)[C@H](C(C)C)NC(=O)[C@@H]2CCCN2C(=O)[C@H](C(C)C)NC(=O)[C@H](CCCNC(=N)N)NC(=O)[C@H](CC(=O)O)NC(=O)[C@@H]2C[C@@H](c3ccccc3)CN2C(=O)CN(C)C(=O)[C@H](Cc2ccc(-c3ccccc3)cc2)NC(=O)[C@H](Cc2ccc(-c3ccccc3)cc2)NC(=O)[C@H](CN2CCOCC2)NC(=O)CSC[C@@H](C(=O)NCC(N)=O)NC1=O` [Example 95] ({CH2CO}-[Ala(morpholin-4-yl)][Bip][Bip][Sar][Pro(trans-4-Ph)]DRVPVYLCG-NH2; thioether N-13), the concentration for half-maximal inhibition (IC50) lay within 200 to 2000 nM.

For the compound `CC(C)C[C@@H]1NC(=O)[C@H](Cc2ncc[nH]2)NC(=O)[C@H](C(C)C)NC(=O)[C@@H]2CCCN2C(=O)[C@H](C(C)C)NC(=O)[C@@H](CCCNC(=N)NCc2cccc(O)c2)NC(=O)[C@H](CC(=O)O)NC(=O)[C@H](Cc2ccccn2)NC(=O)CN(C)C(=O)[C@H](Cc2ccc(-c3ccc(NC(=O)c4cccc(CC(=O)O)c4)cc3)cc2)NC(=O)[C@H](Cc2ccc(-c3ccc(C(=O)O)cc3)cc2)NC(=O)[C@H](CC2CCCCC2)NC(=O)CSC[C@@H](C(=O)NCC(N)=O)NC1=O` [Example 553] ({CH2CO}-[Cha][Bip(4'-COOH)][Bip(4'-NHCO-C6H4-3-CH2COOH)][Sar][2Pal]D[dArg(ω-(3-HO-benzyl))]VPV[Ala(imidazol-2-yl)]LCG-NH2; thioether N-13), the IC50 was in the range of 50 to 200 nM.

`CC[C@H](C)C1NC(=O)[C@@H](CCCNC(=N)N)NC(=O)[C@H](CC(=O)O)NC(=O)[C@H](Cc2ccc(O)cc2)NC(=O)CN(C)C(=O)[C@H](Cc2ccc(-c3ccc(NC(C)=O)cc3)cc2)NC(=O)[C@H](Cc2ccc(-c3ccccc3)cc2)NC(=O)[C@H](CN2CCOCC2)NC(=O)CSC[C@@H](C(=O)NCC(N)=O)NC(=O)[C@H](CC(C)C)NC(=O)[C@H](Cc2cccs2)NC(=O)[C@H](C(C)C)NC(=O)[C@@H]2CCCN2C1=O` (stereo partly shown) [Example 258] ({CH2CO}-[Ala(morpholin-4-yl)][Bip][Bip(4'-NHAc)][Sar]YD[dR][ξIle]PV[2Thi]LCG-NH2; thioether N-13): the IC50 is 50 to 200 nM.

One may read the IC50 as the concentration at which inhibition is half-maximal.
